IC50 and percent inhibition data for seven compounds are collected here from patent publication EP1191024A1, “Thiadiazines and their use as inhibitors of metalloproteinases” (Tschesche, Harald, priority 2000, dated 2002).

For orientation: IC50 means the midpoint of a concentration-inhibition curve.

Like-named read-outs stand apart in the source and are kept apart here.

Common to all, as to experiment: MMP microfluorometric profiling assay (fluorogenic Mca-peptide substrate)
Assay type in all cases: biochemical

Experiment [1] addresses T1, MMP-1 (Homo sapiens, UniProt P03956).
T1 construct: MMP-1 from human rheumatoid synovial fibroblasts was purchased; purchased Calbiochem-Novabiochem Corporation, LaJolla; host or cells: human rheumatoid synovial fibroblasts
T1 sequence (P03956 100-469): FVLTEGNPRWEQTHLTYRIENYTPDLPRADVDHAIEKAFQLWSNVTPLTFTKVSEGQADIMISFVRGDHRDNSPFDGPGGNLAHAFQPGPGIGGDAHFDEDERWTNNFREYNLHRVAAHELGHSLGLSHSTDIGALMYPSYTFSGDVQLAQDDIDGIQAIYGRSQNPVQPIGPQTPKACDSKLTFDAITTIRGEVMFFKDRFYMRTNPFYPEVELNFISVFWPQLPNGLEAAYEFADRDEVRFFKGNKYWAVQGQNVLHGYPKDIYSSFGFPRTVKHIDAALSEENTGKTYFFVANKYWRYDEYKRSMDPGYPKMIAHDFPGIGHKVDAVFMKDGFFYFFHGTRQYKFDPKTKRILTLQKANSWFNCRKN
The procedure:
(§1) The tested MMP enzymes were prepared more specifically in the laboratories of the applicants, with the exception of MMP-1. MMP-1 from human rheumatoid synovial fibroblasts was purchased from Calbiochem-Novabiochem Corporation, LaJolla. Preparation of the recombinant catalytic domain of human Gelatinase A (cdMMP-2): The catalytic domain of Pro-Gelatinase A was prepared using an E. coli expression system according to the method described by Kröger et al^[19]. The proenzyme was activated with 0.5 mM APMA at 37°C prior to use in the assay. Preparation of the recombinant catalytic domain of human neutrophile Collagenase (cdMMP-8^Met80): The enzyme was expressed in E. coli as an active variant by the method of Kleine et al^[20]. Preparation of PMNL-Gelatinase (MMP-9): Latent PMNL-pro-Gelatinase was prepared from human plasma buffy coat as described by Tschesche et al^[21]. PMNL-pro-Gelatinase was activated prior to use by incubation with Trypsin at 37°C for 10 min. Inactivation of Trypsin was accomplished with TKI. Preparation of the recombinant catalytic domain of human Macrophage Elastase (cdMMP-12): The catalytic domain of MMP-12 was expressed in E. coli. The overexpressed protein was isolated as inclusion bodies and the renatured protein was purified by affinity chromatography with a hydroxamate inhibitor coupled column as described^[22]. Preparation of the recombinant catalytic domain of human Collagenase-3 (cdMMP-13): Human pro-cdMMP-13 was prepared using an E. coli expression system according to the method described^[23]. The isolated pro-cdMMP-13 was activated prior to use by incubation with 5 mM HgCl2 for 2 h at 37°C. Preparation of the recombinant catalytic domain of Membrane-Type-1 MMP (cdMMP-14): The catalytic domain of MMP-14 was expressed in E. coli and was activated by autocatalysis^[24]. Preparation of the recombinant human ectodomain of Membrane-Type-1 MMP (ΔTM-MMP-14): The ectodomain of MMP-14 was expressed in Pichia Pastoris by the method of Roderfeld et al. and activated by yeast proteases (Furin-like-proteases) during maturation^[25].
(§2) The enzymatic activity was measured using a modified version of a resonance energy transfer fluorogenic assay as described^[26]. Progress curves were monitored by following the increase in fluorescence at 393 nm (λex = 328 nm), induced by the cleavage of the (7-methoxycoumarin-4-yl)acetyl-Pro-Leu-Gly-Leu-(3-[2,4-dinitro-phenyl]-L-2,3-diamino-propionyl)-Ala-Arg-NH2 (Mca-Pro-Leu-Gly-Leu-Dpa-Ala-Arg-NH2) fluorogenic substrate by MMPs. The fluorescent MCA-group is quenched by resonance energy transfer to the 2,4-dinitrophenyl group. Matrix metalloproteinases cleave this substrate at the Gly-Leu bond. Cleavage results in the loss of energy transfer and a large increase in fluorescence of the MCA group. This substrate is commercially available from Bachem, Switzerland.
(§3) Enzyme inhibition assays were carried out in MRB which consisted of 50 mM HEPES/NaOH, pH 7.0, 10 mM CaCl2 and 0,02% (w/v) PEG 8000 at 25°C. MMP microfluorometric profiling assay was done in white U-bottomed 96-well plates (Microfluor 1 White, Dynex, USA) with a final substrate concentration of 6 µM MCA-peptide, approximately 0.3 to 5 nM MMP with variable inhibitor concentrations and 2% DMSO vehicle. From a 1.5 mM stock (100% DMSO) the inhibitors were serially diluted with MRB to 15, 10, 5, 3, 1, 0.6, 0.3, 0.1, 0.05, 0.01 and 0.005 µM final assay concentration. Column 1, rows A through H, contained only DMSO for the "enzyme-only" wells in the assay. After preincubation for 30 min at 25°C the reaction was started by addition of substrate and the plate was read on a SpectraFluor Plus (Tecan, Germany) plate reader with excitation at 330 nm and emission at 405 nm with the gain set to 150. Each measurement was done in triplicate to ensure statistically significant results. […]

For experiment [2], the target named is cdMMP-13 (Homo sapiens, UniProt P45452). The procedure:
as §1, §2, §3

In experiment [3] the target is T2, cdMMP-14 (Homo sapiens, UniProt P50281).
T2 construct: made in house; host or cells: E. coli
The procedure:
as §1, §2, §3

For experiment [4], the target named is T3, cdMMP-12 (Homo sapiens, UniProt P39900).
T3 construct: The catalytic domain of MMP-12 was expressed in E. coli; made in house; host or cells: E. coli
The procedure: as §1, §2, §3

In experiment [5] the target is T4, MMP-9 (Homo sapiens, UniProt P14780).
T4 construct: from tissue; host or cells: human plasma buffy coat (PMNL)
The procedure: as §1, §2, §3

T3 sequence (P39900 106-263 limits assumed): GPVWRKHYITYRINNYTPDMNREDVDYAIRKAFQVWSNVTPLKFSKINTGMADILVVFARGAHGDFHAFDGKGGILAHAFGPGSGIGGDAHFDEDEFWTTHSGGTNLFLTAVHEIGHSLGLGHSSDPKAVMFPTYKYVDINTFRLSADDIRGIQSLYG
T4 sequence (P14780 107-707 limits assumed): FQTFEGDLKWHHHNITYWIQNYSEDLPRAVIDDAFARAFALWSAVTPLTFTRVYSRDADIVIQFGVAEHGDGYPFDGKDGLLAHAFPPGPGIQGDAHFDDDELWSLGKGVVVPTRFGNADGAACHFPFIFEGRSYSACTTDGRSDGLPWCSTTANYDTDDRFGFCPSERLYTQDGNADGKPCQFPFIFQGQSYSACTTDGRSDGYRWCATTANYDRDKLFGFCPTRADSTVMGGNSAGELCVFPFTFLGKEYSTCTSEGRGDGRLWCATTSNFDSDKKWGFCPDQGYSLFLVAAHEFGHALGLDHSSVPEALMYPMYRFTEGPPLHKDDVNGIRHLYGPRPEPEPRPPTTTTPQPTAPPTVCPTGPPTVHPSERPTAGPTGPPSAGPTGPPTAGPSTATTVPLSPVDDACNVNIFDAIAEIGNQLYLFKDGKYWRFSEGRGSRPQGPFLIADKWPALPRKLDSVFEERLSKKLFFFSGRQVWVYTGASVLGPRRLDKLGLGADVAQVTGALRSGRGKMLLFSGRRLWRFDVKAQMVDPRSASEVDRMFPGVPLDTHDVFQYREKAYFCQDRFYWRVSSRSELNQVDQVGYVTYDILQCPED

Turning to `C[C@H](NS(=O)(=O)c1cccnc1)C(=O)NC1=NN=C(c2ccc(Cl)cc2)CS1` [Example 29, (2S)-N-[5-(4-Chlorophenyl)-6H-1,3,4-thiadiazin-2-yl]-2-[(3-pyridylsulfonyl)-amino]propanamide], the IC50 in experiment [1] was determined as 507 nM; in experiment [2] (read-out: cdMMP-13 IC50), 361 nM; in experiment [3], 443 nM; in experiment [4] it was 403 nM; in experiment [5] it was 257 nM.

Regarding `O=C1C[C@@H](C(=O)NC2=NN=C(c3ccc(Cl)cc3)CS2)NC(=O)N1` [Example 30, (4S)-N-[5-(4-Chlorophenyl)-6H-1,3,4-thiadiazin-2-yl]-2,6-dioxohexahydro-4-pyrimidinecarboxamide], the IC50 in experiment [1] stood at 560 nM; in experiment [2] (read-out: cdMMP-13 IC50), 947 nM; in experiment [3], 477 nM; in experiment [4] it was 654 nM; in experiment [5] it was 780 nM.

For `C[C@@H](NS(=O)(=O)c1ccccc1)C(=O)NC1=NN=C(c2ccc(F)cc2)CS1` [Example 14, (2R)-N-[5-(4-Fluorophenyl)-6H-1,3,4-thiadiazin-2-yl]-2-[(phenylsulfonyl)amino]-propanamide], the IC50 is 725 nM in experiment [1]; 537 nM in experiment [2] (read-out: cdMMP-13 IC50); 727 nM in experiment [3]; 425 nM in experiment [4]; 216 nM in experiment [5].

Regarding `O=C(CC1NC(=O)NC1=O)NC1=NN=C(c2ccc(C3CCCCC3)cc2)CS1` (centres unmarked) [Example 25, N-[5-(4-Cyclohexylphenyl)-6H-1,3,4-thiadiazin-2-yl]-2-(2,5-dioxo-4-imidazolidinyl)acetamide], the percent inhibition stood at 67%^a)@ 15 in experiment [1] (MMP-1, @ 15 (µM)); 67%^a)@ 15 in experiment [2] (cdMMP-13, @ 15 (µM)); 66%^a)@ 15 in experiment [3] (cdMMP-14, @ 15 (µM)); 49%^a)@ 15 in experiment [5] (MMP-9, @ 15 (µM)). Besides, in experiment [4], the IC50 was 1420 nM.

Regarding `COc1ccc(C2=NN=C(NC(=O)[C@H](C)NS(=O)(=O)c3ccccc3)SC2)cc1` [Example 12, (2S)-N-[5-(4-Methoxyphenyl)-6H-1,3,4-thiadiazin-2-yl]-2-[(phenylsulfonyl)-amino]propanamide], the IC50 in experiment [1] came out at 663 nM; in experiment [2] (read-out: cdMMP-13 IC50), 2310 nM; in experiment [3], 1120 nM; in experiment [4], 412 nM; in experiment [5], 1400 nM.

In the case of `C[C@H](NS(=O)(=O)c1ccccc1)C(=O)NC1=NN=C(c2ccc(Cl)s2)CS1` [Example 10, (2S)-N-[5-(5-Chloro-2-thienyl)-6H-1,3,4-thiadiazin-2-yl]-2-[(phenylsulfonyl)-amino]propanamide], the IC50 in experiment [1] amounted to 520 nM; in experiment [2] (read-out: cdMMP-13 IC50), 853 nM; in experiment [3] it was 605 nM; in experiment [4] it was 298 nM; in experiment [5], 722 nM.

As for `C[C@H](NS(=O)(=O)c1ccccc1)C(=O)NC1=NN=C(c2ccc(C(F)(F)F)cc2)CS1` [Example 4, (2S)-2-[(Phenylsulfonyl)amino]-N-{5-[4-(trifluormethyl)phenyl]-6H-1,3,4-thiadiazin-2-yl}propanamide], the IC50 in experiment [1] was 490 nM; in experiment [2], 1030 nM; in experiment [3], 1100 nM; in experiment [4], 367 nM; in experiment [5], 1040 nM.
